The results in this text go back to PMC12667553, “TWF2 Drives Tumor Progression and Sunitinib Resistance in Renal Cell Carcinoma through Hippo Signaling Suppression” (Advanced Science, 2025).

Experiment [1] addresses T1, TWF2 (Twinfilin actin-binding protein; Flag-TWF2) (Homo sapiens, UniProt Q6IBS0, M99A).
T1 construct: Flag-tagged TWF2 overexpressed in 293F cells, purified with anti-Flag magnetic beads
T1 sequence (Q6IBS0 2-349 M99A): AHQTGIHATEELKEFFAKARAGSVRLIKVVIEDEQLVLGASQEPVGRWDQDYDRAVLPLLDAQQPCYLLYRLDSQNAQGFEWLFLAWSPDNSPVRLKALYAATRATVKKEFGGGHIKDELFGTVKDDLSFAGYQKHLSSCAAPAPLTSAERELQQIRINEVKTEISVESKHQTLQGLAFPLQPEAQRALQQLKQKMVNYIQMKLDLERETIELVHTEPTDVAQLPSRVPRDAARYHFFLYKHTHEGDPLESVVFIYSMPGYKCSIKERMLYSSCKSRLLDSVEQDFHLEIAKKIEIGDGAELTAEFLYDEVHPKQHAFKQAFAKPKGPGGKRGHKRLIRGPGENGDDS
Briefly: isothermal titration calorimetry. The conditions noted are these: 25 °C; 20 mM HEPES pH 7.5, 300 mM NaCl, 2 mM MgCl2; 1 mM Sal E titrated into 100 µM TWF2; single-site model. For orientation: ITC needs no label: the signal is the heat of the interaction.

Experiment [2] addresses T2, TWF2 (Twinfilin actin-binding protein; Flag-TWF2) (Homo sapiens, UniProt Q6IBS0).
T2 construct: Flag-tagged TWF2 overexpressed in 293F cells, purified with anti-Flag magnetic beads
T2 sequence (Q6IBS0 2-349): T1 sequence (Q6IBS0 2-349 M99A) with A98M
Briefly: isothermal titration calorimetry. The conditions noted are these: 25 °C; 20 mM HEPES pH 7.5, 300 mM NaCl, 2 mM MgCl2; 1 mM Sal E titrated into 100 µM TWF2; single-site model. From the text:
isothermal titration calorimetry on TWF2 (Twinfilin actin-binding protein; Flag-TWF2) | direct binding affinity between Sal E and purified TWF2, with a dissociation constant (K d)

What is called pKd is the negative decadic logarithm of the Kd, by convention in mol/L. A higher pKd goes with a low Kd.

Changes are numbered by the printed parent chain. pKd: −log10 of the molar value.

Regarding `O=C(/C=C/c1ccc(O)c(O)c1/C(=C\c1ccc(O)c(O)c1)C(=O)O[C@H](Cc1ccc(O)c(O)c1)C(=O)O)O[C@H](Cc1ccc(O)c(O)c1)C(=O)O` [Salvianolic acid E], in experiment [1], the “loss of Sal E binding” value is reported as “showing loss of Sal E binding upon M99 mutation in TWF2”. Moreover, the pKd in experiment [2] is 4.78.
